One experiment addresses T1, K-Ras G12D (Homo sapiens, UniProt P01116, G12D).
T1 construct: made in house; host or cells: E. coli BL21 (DE3)
Description: HTRF resonance energy transfer assay, K-Ras G12D / SOS1 interaction. In kind it is biochemical. The settings on record: HTRF assay of Example 5; read-out: IC50 against K-Ras G12D. Put shortly: (§1)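 GST-tagged K-Ras (WT or mutant) bound to anti-GST-Eu donor was mixed with His-hSOS1 bound to anti-6His-XL665 acceptor in ~5 mM HEPES pH 7.4, 150 mM NaCl, 1 mM DTT, 0.05% BSA, 0.0025% Igepal. HTRF (ex 337, em 620/665 nm) was read after ~10 min or longer. IC50 came from the 665/620 ratio over duplicates from 10 μM to 0.01 μM.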
For orientation: Time-resolved FRET reads energy transfer from a long-lived donor to a nearby acceptor.

Another experiment addresses T2, K-Ras G12V (Homo sapiens, UniProt P01116, G12V).
T2 construct: made in house; host or cells: E. coli BL21 (DE3)
Description: HTRF resonance energy transfer assay, K-Ras G12V / SOS1 interaction. The settings on record: HTRF assay of Example 5; read-out: IC50 against K-Ras G12V. In kind it is biochemical. In short, it runs like this:
as §1

The next experiment concerns the target T3, K-Ras WT (Homo sapiens, UniProt P01116).
T3 construct: made in house; host or cells: E. coli BL21 (DE3)
Description: HTRF resonance energy transfer assay, K-Ras WT / SOS1 interaction. In kind it is biochemical. Particulars: HTRF assay of Example 5; read-out: IC50 against K-Ras WT. In short, it runs like this:
as §1

Another experiment has as its system SW620 cells. Description: Ras cellular assay, growth of cells with K-Ras G12V mutation (CellTiter-Glo). The settings on record: Homo sapiens, SW-620; cell growth, Example 9, G12V mutation; read-out: IC50 against SW620 cells. The format is cell-based. How it is done:
For example, this assay can be also used to assess a selective growth inhibition of a mutant Ras protein relative to a wildtype, or relative to a different mutant Ras protein.
SW620 (ATCC CCL-227) and Capan-1 (ATCC HTB-79) cell lines comprise a G12V mutation and can be used to assess Ras cellular signaling in vitro, e.g., in response to the compounds herein. SW620 culture medium is prepared with RPMI-1640 and 10% heat-inactivated FBS. Capan-1 culture medium is prepared with RPMI-1640 and 10% heat-inactivated FBS. A CellTiter-Glo (CTG) luminescent based assay (Promega) is used to assess growth of the cells, as a measurement of the ability of the compounds herein to inhibit Ras signaling in the cells. The cells (e.g., 800 per well) are seeded in their respective culture medium in standard tissue culture-treated 384-well format plates (Falcon #08-772-116) or ultra-low attachment surface 384-well format plates (S-Bio #MS-9384WZ). The day after plating, cells are treated with a dilution series (e.g., a 10 point 3-fold dilution series) of the compounds herein (e.g., approximately 40 μL final volume per well). Cell viability can be monitored (e.g., approximately 6 days later) according to the manufacturer's recommended instructions, where the CellTiter-Glo reagent is added (e.g., approximately 10 μL), vigorously mixed, covered, and placed on a plate shaker (e.g., approximately for 20 min) to ensure sufficient cell lysis prior to assessment of luminescent signal. The IC50 values are determined using the four parameter fit. The resulting IC50 value is a measurement of the ability of the compounds herein to reduce cell growth of Ras-driven cells (e.g., tumor cell lines) in vitro and/or in vivo.
(In ATP-based viability assays light output follows the ATP content of the culture.)

The next experiment has as its target T4, K-Ras G12S (Homo sapiens, UniProt P01116, G12S).
T4 construct: made in house; host or cells: E. coli BL21 (DE3)
Description: HTRF resonance energy transfer assay, K-Ras G12S / SOS1 interaction. In kind it is biochemical. Particulars: HTRF assay of Example 5; read-out: IC50 against K-Ras G12S. Put shortly: as §1

Some results are limits rather than exact numbers.

One may read the IC50 as the concentration needed to halve the response being measured.

T2 sequence (P01116 1-188 isoform P01116-2 G12V): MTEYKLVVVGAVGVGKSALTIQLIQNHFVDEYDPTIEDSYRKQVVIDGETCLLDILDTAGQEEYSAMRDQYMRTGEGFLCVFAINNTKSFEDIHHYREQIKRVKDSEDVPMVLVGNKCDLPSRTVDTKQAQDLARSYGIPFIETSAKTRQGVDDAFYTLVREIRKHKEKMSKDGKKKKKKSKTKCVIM
T1 sequence (P01116 1-188 isoform P01116-2 G12D): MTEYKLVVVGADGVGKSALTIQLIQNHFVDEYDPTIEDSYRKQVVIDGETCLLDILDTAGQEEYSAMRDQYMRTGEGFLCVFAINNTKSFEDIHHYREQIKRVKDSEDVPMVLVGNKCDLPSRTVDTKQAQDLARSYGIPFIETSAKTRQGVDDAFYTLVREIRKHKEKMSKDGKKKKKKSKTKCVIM
T4 sequence (P01116 1-188 isoform P01116-2 G12S): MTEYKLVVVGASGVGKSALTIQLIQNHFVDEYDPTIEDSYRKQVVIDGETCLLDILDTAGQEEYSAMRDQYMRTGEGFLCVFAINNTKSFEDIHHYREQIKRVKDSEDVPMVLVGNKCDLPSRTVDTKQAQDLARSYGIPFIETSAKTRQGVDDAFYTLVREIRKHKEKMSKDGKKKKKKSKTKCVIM
T3 sequence (P01116 1-188 isoform P01116-2): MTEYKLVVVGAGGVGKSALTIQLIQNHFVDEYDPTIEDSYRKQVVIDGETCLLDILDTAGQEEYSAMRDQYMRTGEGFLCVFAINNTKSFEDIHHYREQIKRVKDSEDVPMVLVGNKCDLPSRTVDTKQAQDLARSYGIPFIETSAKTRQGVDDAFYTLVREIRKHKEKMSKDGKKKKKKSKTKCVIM

Take `N#Cc1c(N)sc2c(F)ccc(-c3c(Cl)c4c5c(nc(OC[C@@]67CCCN6C[C@H](F)C7)nc5c3F)N(CC(F)F)C(CC3CC3C#N)CO4)c12` (single isomer, unassigned) [Compound 674]: the IC50 is < 100 nM at K-Ras G12D, < 100 nM on K-Ras G12V, < 100 nM on K-Ras WT and < 5000 nM with SW620 cells.

For the molecule `N#Cc1c(N)sc2c(F)ccc(-c3c(Cl)c4c5c(nc(OC[C@@]67CCCN6C[C@H](F)C7)nc5c3F)N(C3CCOC3)[C@@H](C(F)F)CO4)c12` (stereo partly drawn) [Compound 747, 2-amino-4-((5R)-8-chloro-5-(difluoromethyl)-10-fluoro-2-(((2R,7aS)-2-fluorotetrahydro-1H-pyrrolizin-7a(5H)-yl)methoxy)-4-(tetrahydrofuran-3-yl)-5,6-dihydro-4H-[1,4]oxazepino[5,6,7-de]quinazolin-9-yl)-7-fluorobenzo[b]thiophene-3-carbonitrile], in the experiment on SW620 cells, the IC50 was < 5000 nM.

Take `N#Cc1c(N)sc2c(F)ccc(-c3c(Cl)c4c5c(nc(OC[C@@]67CCCN6C[C@H](F)C7)nc5c3F)N(CC(F)F)C(C3CCCN3)CO4)c12` (stereo partly drawn) [Compound 784, 2-amino-4-(8-chloro-4-(2,2-difluoroethyl)-10-fluoro-2-(((2R,7aS)-2-fluorotetrahydro-1H-pyrrolizin-7a(5H)-yl)methoxy)-5-(pyrrolidin-2-yl)-5,6-dihydro-4H-[1,4]oxazepino[5,6,7-de]quinazolin-9-yl)-7-fluorobenzo[b]thiophene-3-carbonitrile]: the IC50 at K-Ras G12D is < 100 nM; on K-Ras G12V, < 100 nM; in the experiment with SW620 cells it was < 5000 nM.

With `CS(=O)(=O)NCC1COc2c(Cl)c(-c3ccc(F)c4sc(N)c(C#N)c34)c(F)c3nc(OC[C@@]45CCCN4C[C@H](F)C5)nc(c23)N1CC(F)F` (stereo partly drawn) [Compound 847, N-((9-(2-amino-3-cyano-7-fluorobenzo[b]thiophen-4-yl)-8-chloro-4-(2,2-difluoroethyl)-10-fluoro-2-(((2R,7aS)-2-fluorotetrahydro-1H-pyrrolizin-7a(5H)-yl)methoxy)-5,6-dihydro-4H-[1,4]oxazepino[5,6,7-de]quinazolin-5-yl)methyl)methanesulfonamide], the IC50 on K-Ras G12V is < 100 nM; in the experiment with SW620 cells, < 5000 nM.

As to `C[C@H]1CN(CC2(N(C)C)CCC2)c2nc(OC[C@@]34CCCN3C[C@H](F)C4)nc3c(F)c(-c4ccc(F)c5sc(N)c(C#N)c45)c(Cl)c(c23)O1` [Compound 978, 2-amino-4-((6S)-8-chloro-4-((1-(dimethylamino)cyclobutyl)methyl)-10-fluoro-2-(((2R,7aS)-2-fluorotetrahydro-1H-pyrrolizin-7a(5H)-yl)methoxy)-6-methyl-5,6-dihydro-4H-[1,4]oxazepino[5,6,7-de]quinazolin-9-yl)-7-fluorobenzo[b]thiophene-3-carbonitrile], the IC50 was < 100 nM at K-Ras G12S, < 100 nM on K-Ras G12V and < 5000 nM with SW620 cells.

For the molecule `N#Cc1c(N)sc2c(F)ccc(-c3c(Cl)c4c5c(nc(OC[C@@]67CCCN6C[C@H](F)C7)nc5c3F)N(C3CCCCN(C(=O)C5CN5)C3)CCO4)c12` (stereo partly drawn) [Compound 992, 2-amino-4-(4-(1-(aziridine-2-carbonyl)azepan-3-yl)-8-chloro-10-fluoro-2-(((2R,7aS)-2-fluorotetrahydro-1H-pyrrolizin-7a(5H)-yl)methoxy)-5,6-dihydro-4H-[1,4]oxazepino[5,6,7-de]quinazolin-9-yl)-7-fluorobenzo[b]thiophene-3-carbonitrile], the IC50 with SW620 cells is < 5000 nM.

Regarding `N#Cc1c(N)sc2c(F)ccc(-c3c(Cl)c4c5c(nc(OC[C@@]67CCCN6C[C@H](F)C7)nc5c3F)N(CC(F)F)[C@@H](C3(O)CC3)CO4)c12` [Compound 1001, 2-amino-4-((R)-8-chloro-4-(2,2-difluoroethyl)-10-fluoro-2-(((2R,7aS)-2-fluorotetrahydro-1H-pyrrolizin-7a(5H)-yl)methoxy)-5-(1-hydroxycyclopropyl)-5,6-dihydro-4H-[1,4]oxazepino[5,6,7-de]quinazolin-9-yl)-7-fluorobenzo[b]thiophene-3-carbonitrile], in the experiment on SW620 cells, the IC50 is < 5000 nM.

As for `C#C[C@H]1COc2c(Cl)c(-c3ccc(F)c4sc(N)c(C#N)c34)c(F)c3nc(OC[C@@]45CCCN4C[C@H](F)C5)nc(c23)N1CC(F)F` [Compound 1075, 2-amino-4-((5S)-8-chloro-4-(2,2-difluoroethyl)-5-ethynyl-10-fluoro-2-(((2R,7aS)-2-fluorotetrahydro-1H-pyrrolizin-7a(5H)-yl)methoxy)-5,6-dihydro-4H-[1,4]oxazepino[5,6,7-de]quinazolin-9-yl)-7-fluorobenzo[b]thiophene-3-carbonitrile], the IC50 at K-Ras G12D, on K-Ras G12S, at K-Ras G12V and at K-Ras WT was < 100 nM throughout.

For `CS(=O)(=O)N1CC1C(=O)NCCN1CCOc2c(Cl)c(-c3ccc(F)c4sc(N)c(C#N)c34)c(F)c3nc(OC[C@@]45CCCN4C[C@H](F)C5)nc1c23` (stereo partly drawn) [Compound 1077, N-(2-(9-(2-amino-3-cyano-7-fluorobenzo[b]thiophen-4-yl)-8-chloro-10-fluoro-2-(((2R,7aS)-2-fluorotetrahydro-1H-pyrrolizin-7a(5H)-yl)methoxy)-5,6-dihydro-4H-[1,4]oxazepino[5,6,7-de]quinazolin-4-yl)ethyl)-1-(methylsulfonyl)aziridine-2-carboxamide], the IC50 on K-Ras G12D, at K-Ras G12S, at K-Ras G12V and at K-Ras WT was < 100 nM each time.

Consider `N#Cc1c(N)sc2c(F)ccc(-c3c(Cl)c4c5c(nc(OC[C@@]67CCCN6C[C@H](F)C7)nc5c3F)N(CC(F)F)[C@@H](C3CC3C#N)CO4)c12` (stereo partly drawn) [Compound 1078, 2-amino-4-((5S)-8-chloro-5-(2-cyanocyclopropyl)-4-(2,2-difluoroethyl)-10-fluoro-2-(((2R,7aS)-2-fluorotetrahydro-1H-pyrrolizin-7a(5H)-yl)methoxy)-5,6-dihydro-4H-[1,4]oxazepino[5,6,7-de]quinazolin-9-yl)-7-fluorobenzo[b]thiophene-3-carbonitrile], for which the IC50 on K-Ras G12D, at K-Ras G12S, at K-Ras G12V and at K-Ras WT was < 100 nM throughout.

As for `N#Cc1c(N)sc2c(F)ccc(-c3c(Cl)c4c5c(nc(OC[C@@]67CCCN6C[C@H](F)C7)nc5c3F)N(CC(F)F)C(C3CNC3)CO4)c12` (stereo partly drawn) [Compound 1131, 2-amino-4-(5-(azetidin-3-yl)-8-chloro-4-(2,2-difluoroethyl)-10-fluoro-2-(((2R,7aS)-2-fluorotetrahydro-1H-pyrrolizin-7a(5H)-yl)methoxy)-5,6-dihydro-4H-[1,4]oxazepino[5,6,7-de]quinazolin-9-yl)-7-fluorobenzo[b]thiophene-3-carbonitrile], the half-maximal inhibitory concentration (IC50) at K-Ras G12D, on K-Ras G12S, at K-Ras G12V and at K-Ras WT was < 100 nM in each case.

As for `N#Cc1c(N)sc2c(F)ccc(-c3c(Cl)c4c5c(nc(OC[C@@]67CCCN6C[C@H](F)C7)nc5c3F)N(CC3(N)CCC3)CCCO4)c12` [Compound 1213, 2-amino-4-(4-((1-aminocyclobutyl)methyl)-9-chloro-11-fluoro-2-(((2R,7aS)-2-fluorotetrahydro-1H-pyrrolizin-7a(5H)-yl)methoxy)-4,5,6,7-tetrahydro-[1,5]oxazocino [4,3,2-de]quinazolin-10-yl)-7-fluorobenzo[b]thiophene-3-carbonitrile], the 50% inhibitory concentration (IC50) at K-Ras G12D, at K-Ras G12S, on K-Ras G12V and on K-Ras WT was < 100 nM each time.

For the molecule `N#Cc1c(N)sc2c(F)ccc(-c3c(Cl)c4c5c(nc(OC[C@@]67CCCN6C[C@H](F)C7)nc5c3F)NCCC(CO)O4)c12` (stereo partly drawn) [Compound 1214, 2-amino-4-(9-chloro-11-fluoro-2-(((2R,7aS)-2-fluorotetrahydro-1H-pyrrolizin-7a(5H)-yl)methoxy)-7-(hydroxymethyl)-4,5,6,7-tetrahydro-[1,5]oxazocino[4,3,2-de]quinazolin-10-yl)-7-fluorobenzo[b]thiophene-3-carbonitrile], the IC50 on K-Ras G12D, on K-Ras G12S, at K-Ras G12V and at K-Ras WT was < 100 nM throughout.

The values are drawn from patent US12209102B2, “Heterocyclic compounds and uses thereof” (Kumquat Biosciences Inc., priority 2022, dated 2025).
